Reference: ChEMBL document CHEMBL2177061, “Factors influencing the specificity of inhibitor binding to the human and malaria parasite dihydroorotate dehydrogenases” (J Med Chem, 2012)
Numbering of substitutions follows the chain as printed.

What was measured:
Plasmodium falciparum [1] = assay: Ratio of IC50 for Plasmodium falciparum […] dehydrogenase C276A mutant to IC50 for Plasmodium falciparum wild type […] dehydrogenase
Plasmodium falciparum [2] = assay: Ratio of IC50 for Plasmodium falciparum […] dehydrogenase F188A mutant to IC50 for Plasmodium falciparum wild type […] dehydrogenase
Plasmodium falciparum [3] = assay: Ratio of IC50 for Plasmodium falciparum […] dehydrogenase H185A mutant to IC50 for Plasmodium falciparum wild type […] dehydrogenase
Plasmodium falciparum [4] = assay: Ratio of IC50 for Plasmodium falciparum […] dehydrogenase C276Y mutant to IC50 for Plasmodium falciparum wild type […] dehydrogenase
Plasmodium falciparum [5] = assay: Ratio of IC50 for Plasmodium falciparum […] dehydrogenase C276F mutant to IC50 for Plasmodium falciparum wild type […] dehydrogenase
[6] = target: Dihydroorotate dehydrogenase (quinone), mitochondrial (Homo sapiens, UniProt Q02127); assay: Inhibition of human […] dehydrogenase expressed in Escherichia coli BL21(DE3) using […] as substrate by DCIP-based colorimetric analysis
[7] = target: T1, Dihydroorotate dehydrogenase (Plasmodium falciparum, UniProt Q54A96); assay: Inhibition of Plasmodium falciparum […] dehydrogenase expressed in Escherichia coli BL21(DE3) using […] as substrate by DCIP-based colorimetric analysis
T1 sequence (Q54A96 whole entry): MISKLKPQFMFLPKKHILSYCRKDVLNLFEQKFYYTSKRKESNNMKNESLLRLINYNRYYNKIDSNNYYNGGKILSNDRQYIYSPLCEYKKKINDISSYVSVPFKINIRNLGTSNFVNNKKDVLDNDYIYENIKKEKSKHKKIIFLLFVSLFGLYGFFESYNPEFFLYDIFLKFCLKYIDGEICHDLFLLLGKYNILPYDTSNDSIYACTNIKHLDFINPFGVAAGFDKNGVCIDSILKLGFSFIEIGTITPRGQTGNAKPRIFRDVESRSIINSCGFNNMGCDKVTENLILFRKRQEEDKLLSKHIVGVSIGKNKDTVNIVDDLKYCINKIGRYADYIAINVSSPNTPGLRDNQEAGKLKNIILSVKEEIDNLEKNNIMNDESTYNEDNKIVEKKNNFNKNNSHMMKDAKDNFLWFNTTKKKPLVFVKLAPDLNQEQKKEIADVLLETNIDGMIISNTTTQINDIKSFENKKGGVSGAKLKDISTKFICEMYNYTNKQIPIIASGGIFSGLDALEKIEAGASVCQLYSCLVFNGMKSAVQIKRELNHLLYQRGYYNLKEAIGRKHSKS

Homo sapiens [8] = species on record: Homo sapiens; assay: Ratio of IC50 for human […] dehydrogenase H56A mutant to IC50 for human wild type […] dehydrogenase
[9] = test system: T2, Dihydroorotate dehydrogenase (quinone), mitochondrial (Plasmodium falciparum (isolate 3D7)), Q08210 [H185A]; assay: Inhibition of Plasmodium falciparum […] dehydrogenase H185A mutant expressed in Escherichia coli BL21(DE3) using […] as substrate at 100 uM by DCIP-based colorimetric analysis
T2 sequence (whole entry): T1 sequence (Q54A96 whole entry) with H185A

Homo sapiens [10] = species on record: Homo sapiens; assay: Ratio of IC50 for human dihydrofolate dehydrogenase Y147F mutant to IC50 for human wild type dihydrofolate dehydrogenase
Homo sapiens [11] = species on record: Homo sapiens; assay: Ratio of IC50 for human dihydrofolate dehydrogenase Y147A mutant to IC50 for human wild type dihydrofolate dehydrogenase
[12] = test system: T3, Dihydroorotate dehydrogenase (quinone), mitochondrial (Plasmodium falciparum (isolate 3D7)), Q08210 [C276Y]; assay: Inhibition of Plasmodium falciparum […] dehydrogenase C276Y mutant expressed in Escherichia coli BL21(DE3) using […] as substrate at 100 uM by DCIP-based colorimetric analysis
T3 sequence (whole entry): T1 sequence (Q54A96 whole entry) with C276Y

[13] = test system: T4, Dihydroorotate dehydrogenase (quinone), mitochondrial (Plasmodium falciparum (isolate 3D7)), Q08210 [F188Y]; assay: Inhibition of Plasmodium falciparum […] dehydrogenase F188Y mutant expressed in Escherichia coli BL21(DE3) using […] as substrate at 100 uM by DCIP-based colorimetric analysis
T4 sequence (whole entry): T1 sequence (Q54A96 whole entry) with F188Y

[14] = test system: T5, Dihydroorotate dehydrogenase (quinone), mitochondrial (Plasmodium falciparum (isolate 3D7)), Q08210 [C276F]; assay: Inhibition of Plasmodium falciparum […] dehydrogenase C276F mutant expressed in Escherichia coli BL21(DE3) using […] as substrate at 100 uM by DCIP-based colorimetric analysis
T5 sequence (whole entry): T1 sequence (Q54A96 whole entry) with C276F

Homo sapiens [15] = species on record: Homo sapiens; assay: Ratio of IC50 for human dihydrofolate dehydrogenase Y147C mutant to IC50 for human wild type dihydrofolate dehydrogenase
Homo sapiens [16] = species on record: Homo sapiens; assay: Inhibition of human […] dehydrogenase Y147A mutant expressed in Escherichia coli BL21(DE3) using […] as substrate at 100 uM by DCIP-based colorimetric analysis
Homo sapiens [17] = species on record: Homo sapiens; assay: Inhibition of human […] dehydrogenase Y147F mutant expressed in Escherichia coli BL21(DE3) using […] as substrate at 100 uM by DCIP-based colorimetric analysis
Homo sapiens [18] = species on record: Homo sapiens; assay: Inhibition of human […] dehydrogenase H56A mutant expressed in Escherichia coli BL21(DE3) using […] as substrate at 100 uM by DCIP-based colorimetric analysis
Homo sapiens [19] = species on record: Homo sapiens; assay: Inhibition of human […] dehydrogenase Y147C mutant expressed in Escherichia coli BL21(DE3) using […] as substrate at 100 uM by DCIP-based colorimetric analysis

Dihydroorotate dehydrogenase (quinone), mitochondrial, sequence (Q02127 whole entry): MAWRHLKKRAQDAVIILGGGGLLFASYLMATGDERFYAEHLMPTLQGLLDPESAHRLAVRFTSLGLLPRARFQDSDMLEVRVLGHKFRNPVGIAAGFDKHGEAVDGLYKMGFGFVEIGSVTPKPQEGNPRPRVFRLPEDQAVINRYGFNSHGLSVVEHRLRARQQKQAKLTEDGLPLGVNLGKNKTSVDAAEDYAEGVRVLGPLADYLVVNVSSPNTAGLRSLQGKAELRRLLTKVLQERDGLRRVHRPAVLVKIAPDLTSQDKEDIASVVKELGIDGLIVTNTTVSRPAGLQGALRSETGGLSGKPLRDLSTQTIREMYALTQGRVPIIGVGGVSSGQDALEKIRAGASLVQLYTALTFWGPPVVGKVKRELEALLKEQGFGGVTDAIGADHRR

Q: Which results are given for `Cc1cc(Nc2ccc3ccccc3c2)n2ncnc2n1`?
A: Ratio IC50 (Plasmodium falciparum [1]): 0.69; Ratio IC50 (Plasmodium falciparum [2]): 29; Ratio IC50 (Plasmodium falciparum [3]): 19; Ratio IC50 (Plasmodium falciparum [4]): 3.5; Ratio IC50 (Plasmodium falciparum [5]): 2.3

Q: Which results are given for `Cc1cc(O)n2nc(SCc3ccccc3Cl)nc2n1`?
A: IC50 [6]: 12 µM; IC50 [7]: 28 µM

Q: With `Cc1cc(NCc2ccccc2)n2nc(SCc3ccccc3)nc2n1` as the compound, how does the IC50 [6] read?
A: > 100 µM

Q: And the IC50 [7]?
A: > 100 µM

Q: `Cc1cc(O)n2nc(SCc3ccccc3[N+](=O)[O-])nc2n1` was tested. Which IC50 [6] did it give?
A: 9.5 µM

Q: And the IC50 [7]?
A: > 100 µM

Q: Which results are given for `Cc1cc(O)n2nc(SCc3cc(Cl)ccc3Cl)nc2n1`?
A: Ratio IC50 (Homo sapiens [8]): 7.1; inhibition [9]: < 50%; Ratio IC50 (Homo sapiens [10]): 1.1; Ratio IC50 (Plasmodium falciparum [1]): 3.7; Ratio IC50 (Homo sapiens [11]): 20; IC50 [6]: 0.051 µM; inhibition [12]: < 50%; inhibition [13]: < 50%; IC50 [7]: 11 µM; inhibition [14]: < 50%; Ratio IC50 (Homo sapiens [15]): 14

Q: How did the inhibition [9] turn out when `Cc1cc(=O)n2nc(SCc3ccc(Cl)cc3)nc2[nH]1` was run?
A: < 50%

Q: And the Ratio IC50 (Plasmodium falciparum [1])?
A: 1.5

Q: What about the inhibition (Homo sapiens [16]) of the same compound?
A: < 50%

Q: What about the IC50 [6] of the same compound?
A: 39 µM

Q: And the inhibition [12]?
A: < 50%

Q: And the inhibition [13]?
A: < 50%

Q: And the inhibition (Homo sapiens [17])?
A: < 50%

Q: What about the inhibition (Homo sapiens [18]) of the same compound?
A: < 50%

Q: What about the IC50 [7] of the same compound?
A: 1 µM

Q: What about the inhibition (Homo sapiens [19]) of the same compound?
A: < 50%

Q: And the inhibition [14]?
A: < 50%

Q: What does the source list for `Cc1cc(N)n2nc(SCc3ccccc3)nc2n1`?
A: IC50 [6]: > 100 µM; IC50 [7]: > 100 µM

Q: With `Cc1cc(O)n2nc(SCc3c(Cl)cccc3Cl)nc2n1` as the compound, how does the IC50 [6] read?
A: 18 µM

Q: What about the IC50 [7] of the same compound?
A: 3.5 µM

Q: Which results are given for `Cc1ccc(CSc2nc3[nH]c(C)cc(=O)n3n2)cc1`?
A: IC50 [6]: 46 µM; IC50 [7]: 26 µM

Q: With `Cc1cc(O)n2nc(SCc3cccc(Cl)c3)nc2n1` as the compound, how does the IC50 [6] read?
A: 29 µM

Q: What about the IC50 [7] of the same compound?
A: 5.6 µM

Q: What does the source list for `CCc1cc(O)n2nc(SCc3ccc(Cl)cc3)nc2n1`?
A: IC50 [6]: 13 µM; IC50 [7]: > 100 µM

Q: With `Cc1cc(N)n2nc(SCc3ccc(Cl)c(Cl)c3)nc2n1` as the compound, how does the IC50 [6] read?
A: > 100 µM

Q: What about the IC50 [7] of the same compound?
A: > 100 µM

Q: How did the IC50 [6] turn out when `Cc1cc(C)cc(CSc2nc3nc(C)cc(O)n3n2)c1` was run?
A: 30 µM

Q: And the IC50 [7]?
A: 19 µM

Q: What does the source list for `Cc1cc(O)n2nc(SCc3ccc(Br)cc3)nc2n1`?
A: IC50 [6]: 32 µM; IC50 [7]: 33 µM

Q: For `Cc1cc(O)n2nc(SCc3ccccc3)nc2n1`, which IC50 [6] is on record?
A: 89 µM

Q: What about the IC50 [7] of the same compound?
A: 62 µM

Q: Which IC50 [6] does the source give for `COc1ccc(CSc2nc3nc(C)cc(O)n3n2)cc1` here?
A: 63 µM

Q: And the IC50 [7]?
A: 21 µM

Q: Which results are given for `Cc1cc(O)n2nc(SCc3ccc(Cl)c(Cl)c3)nc2n1`?
A: inhibition [9]: < 50%; Ratio IC50 (Homo sapiens [10]): 8.8; Ratio IC50 (Plasmodium falciparum [1]): 2; inhibition (Homo sapiens [16]): < 50%; IC50 [6]: 6.5 µM; inhibition [12]: < 50%; inhibition [13]: < 50%; inhibition (Homo sapiens [18]): < 50%; IC50 [7]: 1.9 µM; inhibition (Homo sapiens [19]): < 50%; inhibition [14]: < 50%
